Laboratory results as given in patent US7048926B2, “Methods of agonizing and antagonizing FabK” (priority 2000, dated 2006).
Values after ≈ are worked out from the molar mass of the structure shown. Like-named read-outs stand apart in the source and are kept apart here.

Legend:
FabI = FabI assay, enzyme source not stated; type: biochemical
Protocol: (§1) FabI catalyses the reduction of enoyl-ACPs with the concommitant oxidation of NAD(P)H. Crotonoyl-ACP can be prepared as described in patent applications numbered PCT/US00/12104 and EP1997000306506. The reduction of enoyl-ACPs can be monitored by following the change in absorbance at 340 nm as NADH is oxidised. Enoyl ACPs (eg crotonoyl-ACP) can be replaced by enoyl-CoAs (eg crotonoyl-CoA)
(§2) Assays were carried out in Costar 3696 half-area plates in a final assay volume of 150 ul on a Spectramax platereader. Substrates, NADH and crotonoyl ACP, were incubated with FabI enzyme in 100 mM N-[2-acetamido]-2 iminodiacetic acid (ADA), pH 6.5, 4% glycerol at 30° C. and the reaction monitored at 340 nm. This assaying can also be performed using crotonyl CoA, NADPH or an NADH analogue as a substrate, or using a substrate suitable for FabK, such as those described above.
(§3) Using the above assay, compounds can be tested for inhibition of FabI. 30 ul of a candidate compounds is added to a well of the plate. 30 ul of a 250 uM stock of NADH is then added to the well. 60 ul of a 67.5 uM stock of Crotonoyl ACP is added to the well. The plate is incubated at 30° C. for 5 min. 30 ul of a 6.25 nM stock of enzyme is then added to the well (also preincubated at 30° C.) to initiate the reaction. The plate is then monitored at A340 nm for 30 min at 30° C. Positive controls are reactions without compound. […]

S. pneumoniae FabK = biological target: T1, S. pneumoniae FabK (Streptococcus pneumoniae, UniProt Q9FBC5, T318A); experiment: FabK enoyl-ACP reductase assay (NADH oxidation at 340 nm); type: biochemical; settings: for inhibition of FabK (in words): 25 uM crotonoyl ACP, 50 uM NADH, 1.25 nM enzyme
T1 construct: made in house
Protocol: FabK catalyses the reduction of enoyl-ACPs with the concommitant oxidation of NADH. Crotonoyl-ACP can be prepared as described below. The reduction of crotonoyl-ACP to butyryl-ACP can be monitored by following the change in absorbance at 340 nm as NADH is oxidised.
as §2, with “FabK” for “FabI”, “irminodiacetic” for “iminodiacetic”, “6.5, 100 mM NH4Cl,” for “6.5,”, “substrate.” for “substrate, or using a substrate suitable for FabK, such as those described above.”
Using the above assay, compounds can be tested for inhibition of FabK. 30 ul of a candidate compounds is added to a well of the plate. 30 ul of a 250 uM stock of NADH is then added to the well. 60 ul of a 67.5 uM stock of Crotonoyl ACP is added to the well. The plate is incubated at 30° C. for 5 min. 30 ul of a 6.25 nM stock of enzyme is then added to the well (also preincubated at 30° C.) to initiate the reaction. The plate is then monitored at A340 nm for 30 min at 30° C. Positive controls are reactions without compound. Negative controls are reactions without enzyme and without compound. Final concentrations in the assay mixture are 25 uM crotonoyl ACP, 50 uM NADH, 1.25 nM enzyme.

S. aureus FabI = S. aureus FabI (Staphylococcus aureus, UniProt Q6GI75); experiment: FabI assay, S. aureus enzyme; type: biochemical
Protocol: as §1, §2, §3

S. aureus WCUH29 = experiment: Antibacterial MIC; type: cell-based; settings: Staphylococcus aureus
S. pneumoniae N1387 = experiment: Antibacterial MIC; type: cell-based; settings: Streptococcus pneumoniae
M. catarrhalis = experiment: Antibacterial MIC; type: cell-based; settings: Moraxella catarrhalis, read-out: Antibacterial MIC
H. influenzae NEMC1 = experiment: Antibacterial MIC; type: cell-based; settings: Haemophilus influenzae
E. coli FabI = E. coli FabI (Escherichia coli, UniProt P0AEK4); experiment: FabI assay, E. coli enzyme; type: biochemical
Protocol: as §1, §2, §3

S. aureus Oxford = experiment: Antibacterial MIC; type: cell-based; settings: Staphylococcus aureus, read-out: Antibacterial MIC
E. coli AcrAB^− = experiment: Antibacterial MIC; type: cell-based; settings: Escherichia coli, read-out: Antibacterial MIC
S. pneumoniae 1629 = experiment: Antibacterial MIC; type: cell-based
H. influenzae Q1 = experiment: Antibacterial MIC; type: cell-based; settings: Haemophilus influenzae
E. faecalis 1 = experiment: Antibacterial MIC; type: cell-based; settings: Enterococcus faecalis, 1, read-out: Antibacterial MIC
S. pneumoniae ERY2 = experiment: Antibacterial MIC; type: cell-based; settings: Streptococcus pneumoniae, ERY2, read-out: Antibacterial MIC
E. faecalis 7 = experiment: Antibacterial MIC; type: cell-based

T1 sequence (Q9FBC5 whole entry T318A): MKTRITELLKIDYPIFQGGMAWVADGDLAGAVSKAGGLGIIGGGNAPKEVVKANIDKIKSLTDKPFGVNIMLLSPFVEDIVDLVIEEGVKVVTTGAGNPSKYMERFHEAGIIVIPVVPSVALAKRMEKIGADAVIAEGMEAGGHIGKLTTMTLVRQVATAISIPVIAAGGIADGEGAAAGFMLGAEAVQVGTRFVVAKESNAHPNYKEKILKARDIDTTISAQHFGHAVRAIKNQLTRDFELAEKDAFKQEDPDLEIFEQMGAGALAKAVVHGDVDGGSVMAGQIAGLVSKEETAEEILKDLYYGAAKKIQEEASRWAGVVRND
E. coli FabI, sequence (P0AEK4 whole entry): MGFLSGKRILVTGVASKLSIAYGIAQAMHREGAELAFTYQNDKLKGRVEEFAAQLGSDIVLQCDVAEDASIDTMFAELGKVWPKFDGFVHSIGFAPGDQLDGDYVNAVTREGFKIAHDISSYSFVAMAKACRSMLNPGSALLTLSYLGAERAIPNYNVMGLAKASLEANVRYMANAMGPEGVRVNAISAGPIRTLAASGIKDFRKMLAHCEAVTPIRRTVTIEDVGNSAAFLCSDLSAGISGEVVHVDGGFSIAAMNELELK
S. aureus FabI, sequence (Q6GI75 whole entry): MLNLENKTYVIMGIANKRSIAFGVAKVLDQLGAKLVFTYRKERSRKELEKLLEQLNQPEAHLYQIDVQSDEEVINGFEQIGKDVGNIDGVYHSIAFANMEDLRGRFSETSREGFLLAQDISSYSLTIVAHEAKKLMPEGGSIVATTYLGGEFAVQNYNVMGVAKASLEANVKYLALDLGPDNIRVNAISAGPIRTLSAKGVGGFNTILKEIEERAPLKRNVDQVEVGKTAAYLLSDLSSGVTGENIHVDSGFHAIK

## Cc1[nH]c2ccccc2c1CN(C)C(=O)/C=C/c1cnc2c(c1)CCC(=O)N2 [Formula II]
FabI
  inhibition of FabI (in words): inhibit
S. pneumoniae FabK
  inhibition of FabK (in words): inhibit

## CN(Cc1cn(C)c2ccccc12)C(=O)/C=C/c1cnc2c(c1)CCC(=O)N2 [Formula I]
FabI
  inhibition of FabI (in words): inhibit
S. pneumoniae FabK
  inhibition of FabK (in words): inhibit

## Cl.N [NH4^+]
S. pneumoniae FabK; NH4^+ at 100 mM
  activation of FabK reaction over the reaction with no monovalent cations: about 300 fold

## CN(Cc1cn(C)c2ccccc12)C(=O)/C=C/c1cnc2c(c1)CCC(=O)N2 [SB-611113]
S. aureus FabI
  IC50: 0.1 µM
S. aureus WCUH29; WCUH29, read-out: Antibacterial MIC
  MIC: ≤ 0.06 mg/L
S. pneumoniae N1387; N1387, read-out: Antibacterial MIC
  MIC: 16 mg/L (≈ 42.7 µM)
M. catarrhalis
  MIC: ≤ 0.06 mg/L
H. influenzae NEMC1; NEMC1, read-out: Antibacterial MIC
  MIC: 32 mg/L (≈ 85.5 µM)
E. coli FabI
  IC50: < 0.06 µM
S. pneumoniae FabK
  IC50: 5.7 µM
S. aureus Oxford
  MIC: ≤ 0.06 mg/L
E. coli AcrAB^−
  MIC: 8 mg/L (≈ 21.4 µM)
S. pneumoniae 1629; Streptococcus pneumoniae, 1629, read-out: Antibacterial MIC
  MIC: 8 mg/L (≈ 21.4 µM)
H. influenzae Q1; Q1, read-out: Antibacterial MIC
  MIC: 16 mg/L (≈ 42.7 µM)
E. faecalis 1
  MIC: 16 mg/L (≈ 42.7 µM)
S. pneumoniae ERY2
  MIC: 8 mg/L (≈ 21.4 µM)
E. faecalis 7; Enterococcus faecalis, 7, read-out: Antibacterial MIC
  MIC: 16 mg/L (≈ 42.7 µM)

## Cc1[nH]c2ccccc2c1CN(C)C(=O)/C=C/c1cnc2c(c1)CCC(=O)N2 [SB-641197]
S. aureus WCUH29; S. aureus WCUH29, read-out: Antibacterial MIC
  MIC: ≤ 0.06 mg/L
S. pneumoniae N1387; S. pneumoniae N1387, read-out: Antibacterial MIC
  MIC: 16 mg/L (≈ 42.7 µM)
M. catarrhalis; M. catarrhalis
  MIC: ≤ 0.06 mg/L
H. influenzae NEMC1; H. influenzae NEMC1, read-out: Antibacterial MIC
  MIC: 2 mg/L (≈ 5.34 µM)
S. pneumoniae FabK
  IC50: 5.2 µM
S. aureus Oxford
  MIC: ≤ 0.06 mg/L
E. coli AcrAB^−
  MIC: 0.5 mg/L (≈ 1.34 µM)
S. pneumoniae 1629; Streptococcus pneumoniae, S. pneumoniae 1629, read-out: Antibacterial MIC
  MIC: 8 mg/L (≈ 21.4 µM)
H. influenzae Q1; H. influenzae Q1, read-out: Antibacterial MIC
  MIC: 1 mg/L (≈ 2.67 µM)
E. faecalis 1
  MIC: 16 mg/L (≈ 42.7 µM)
S. pneumoniae ERY2
  MIC: 8 mg/L (≈ 21.4 µM)
E. faecalis 7; Enterococcus faecalis, E. faecalis 7, read-out: Antibacterial MIC
  MIC: 16 mg/L (≈ 42.7 µM)
